The record followed here is ChEMBL document CHEMBL5058564, “EUbOPEN Chemogenomics Library 2 (Incucyte)” (2022).

Common to all, as to format: toxicity, cell-based
One data set deals with Fibroblast. Briefly: Incucyte cell viability with human fibroblast. The following applies: 10 µM, compound concentration 10 uM.
The test system of a further data set is U2OS. Briefly: Incucyte cell viability with U2OS. The following applies: human, 10 µM, compound concentration 10 uM.
For another data set, the system named is HEK-293T. The experiment in a line: Incucyte cell viability with HEK293T. The following applies: human, 10 µM, compound concentration 10 uM.
Where [1] appears, read: 0 h, replicate number 2, timepoint 0 hours.
Setting [2] is: 6 h, replicate number 2, timepoint 6 hours.
The mark [3] stands for this setting: 12 h, replicate number 1, timepoint 12 hours.
Where [4] appears, read: 18 h, replicate number 1, timepoint 18 hours.
Where [5] appears, read: 18 h, replicate number 2, timepoint 18 hours.
The mark [6] stands for this setting: 24 h, replicate number 1, timepoint 24 hours.
Where [7] appears, read: 24 h, replicate number 2, timepoint 24 hours.
Where [8] appears, read: 6 h, replicate number 1, timepoint 6 hours.
[9] abbreviates: 12 h, replicate number 2, timepoint 12 hours.
Setting [10] is: 0 h, replicate number 1, timepoint 0 hours.

Where a SMILES comes first, the peptide text is derived from it. [ ]: non-standard residue; d: D form. The star is where a group is joined. dPhe(4-NHCONH2) = NC(=O)Nc1ccc(C[C@@H](N)C(=O)O)cc1; Dihydroorotyl(S) = O=C1C[C@@H](C(=O)*)NC(=O)N1; dPhe(4-Cl) = N[C@H](Cc1ccc(Cl)cc1)C(=O)O; Phe(4-NH2) = Nc1ccc(C[C@H](N)C(=O)O)cc1; d2Nal = N[C@H](Cc1ccc2ccccc2c1)C(=O)O; Arg(Me) = CNC(=N)NCCC[C@H](N)C(=O)O; Lys(iPr) = CC(C)NCCCC[C@H](N)C(=O)O; d3Pal = N[C@H](Cc1cccnc1)C(=O)O; azaGly = NNC(=O)O
Further: unitless GR value; below 1 slowed growth and below 0 cell loss.

For `CNC(=N)NCCC[C@H](NC(=O)[C@H](CC(C)C)NC(=O)NNC(=O)[C@H](Cc1ccccc1)NC(=O)[C@H](CO)NC(=O)[C@H](CC(N)=O)NC(=O)[C@@H](Cc1cccnc1)NC(=O)[C@H](N)Cc1ccc(O)cc1)C(=O)NCC(N)=O` [KISS1-543] (H-[dY][d3Pal]NSF[azaGly]L[Arg(Me)]G-NH2), the “Growth Rate” value is on record as 0.66 in the data set with Fibroblast (setting [1]); 0.8 with Fibroblast (setting [2]); 0.41 in the data set on Fibroblast (setting [3]); 0.5 with Fibroblast (setting [4]); 0.76 in the data set with Fibroblast (setting [5]); 0.46 with Fibroblast (setting [6]). Besides, the “Growth Rate” value is on record as 0.72 in the data set on Fibroblast (setting [7]); 0.72 with U2OS (setting [1]); 0.84 with U2OS (setting [8]); 0.89 in the data set on U2OS (setting [9]); 0.99 with U2OS (setting [5]); 1 in the data set on U2OS (setting [7]). For the same compound, the “Growth Rate” value in the data set with HEK-293T (setting [10]) worked out at 0.75; with HEK-293T (setting [1]) it was 0.71; in the data set on HEK-293T (setting [8]), 0.69; in the data set on HEK-293T (setting [3]), 0.68; in the data set with HEK-293T (setting [4]) it was 0.68; in the data set with HEK-293T (setting [6]), 0.71. Moreover, the “Growth Rate” value with HEK-293T (setting [7]) stood at 0.84.

`CC(=O)N[C@H](Cc1ccc2ccccc2c1)C(=O)N[C@H](Cc1ccc(Cl)cc1)C(=O)N[C@H](Cc1cccnc1)C(=O)N[C@@H](CO)C(=O)N[C@@H](Cc1ccc(NC(=O)[C@@H]2CC(=O)NC(=O)N2)cc1)C(=O)N[C@H](Cc1ccc(NC(N)=O)cc1)C(=O)N[C@@H](CC(C)C)C(=O)N[C@@H](CCCCNC(C)C)C(=O)N1CCC[C@H]1C(=O)N[C@H](C)C(N)=O` [DEGARELIX] (Ac-[d2Nal][dPhe(4-Cl)][d3Pal]S[Phe(4-NH2)](Dihydroorotyl(S))[dPhe(4-NHCONH2)]L[Lys(iPr)]P[dA]-NH2): the “Growth Rate” value is recorded as -1 in the data set on Fibroblast (setting [10]), -0.9 with Fibroblast (setting [1]), -1 in the data set on U2OS (setting [10]) and -0.99 with HEK-293T (setting [10]).

In the case of `O=S(=O)(c1ccccc1)c1cnc2c(N3CCNCC3)cccc2c1` [INTEPIRDINE], the “Growth Rate” value in the data set on Fibroblast (setting [10]) is 0.87; in the data set on Fibroblast (setting [1]), 0.36; in the data set with Fibroblast (setting [8]), 0.23; in the data set on Fibroblast (setting [3]), 0.57; in the data set on Fibroblast (setting [4]), 0.61; with Fibroblast (setting [5]), 0.94. The “Growth Rate” value was 0.42 in the data set on Fibroblast (setting [6]); 0.98 in the data set on Fibroblast (setting [7]); -0.78 in the data set with U2OS (setting [10]); 0.23 in the data set with U2OS (setting [2]); 0.78 with U2OS (setting [9]); 0.82 in the data set with U2OS (setting [5]). The entries for the “Growth Rate” value in the data set on U2OS (setting [7]), in the data set with HEK-293T (setting [10]) and in the data set with HEK-293T (setting [1]) were 0.84, 1 and 0.98, respectively.

For `CC1=C(C)C(=O)C(C(C)(C)CC(=O)N(CCCCSC[C@H]2O[C@@H](n3cnc4c(N)ncnc43)[C@@H]3OC(C)(C)O[C@@H]32)Cc2cccc(-c3ccc(Cl)cc3)c2)=C(C)C1=O`, the “Growth Rate” value is given as 0.04 in the data set with Fibroblast (setting [10]); 0.08 with Fibroblast (setting [1]); -0.32 in the data set on U2OS (setting [10]); 0.3 in the data set on U2OS (setting [3]); 0.93 in the data set on U2OS (setting [9]); 0.49 in the data set on U2OS (setting [4]). The “Growth Rate” value with U2OS (setting [5]) is 0.87; in the data set on U2OS (setting [6]) it was 0.63; with U2OS (setting [7]), 0.92; in the data set on HEK-293T (setting [10]), 0.72; with HEK-293T (setting [1]), 0.07; in the data set with HEK-293T (setting [3]) it was 0.85. In addition, the “Growth Rate” value with HEK-293T (setting [9]) worked out at 0.97; in the data set with HEK-293T (setting [5]) it was 0.94; in the data set on HEK-293T (setting [6]), 0.96.

In the case of `CNC[C@H](O)c1ccc(O)c(O)c1` [EPINEPHRINE], the “Growth Rate” value with Fibroblast (setting [10]) is 0.11; in the data set with Fibroblast (setting [1]) it was -0.14; in the data set on U2OS (setting [10]) it was 0.36; in the data set with U2OS (setting [8]), 0.63; with U2OS (setting [2]), 0.96; in the data set on U2OS (setting [3]), 0.43. Besides, the “Growth Rate” value in the data set with U2OS (setting [9]) is 0.71; with U2OS (setting [4]), 0.85; in the data set with U2OS (setting [5]), 0.9; in the data set on U2OS (setting [6]) it was 0.86; in the data set on U2OS (setting [7]) it was 0.94; with HEK-293T (setting [10]), 0.03. Also, the “Growth Rate” value is given as 0.83 with HEK-293T (setting [8]), 0.73 in the data set with HEK-293T (setting [3]) and 0.84 in the data set on HEK-293T (setting [4]).

With `CCc1nnc(NS(=O)(=O)c2ccc(NC(=S)NC(=O)/C=C/c3ccc(F)cc3)cc2)s1`, the “Growth Rate” value is listed as -0.01 in the data set with Fibroblast (setting [1]); 0.82 with Fibroblast (setting [2]); 0.7 with Fibroblast (setting [3]); 0.53 in the data set with Fibroblast (setting [9]); 0.53 with Fibroblast (setting [5]); 0.62 in the data set with Fibroblast (setting [6]). The “Growth Rate” value is 0.61 in the data set with Fibroblast (setting [7]); 0.07 with U2OS (setting [10]); -0.11 with U2OS (setting [1]); 0.55 in the data set with U2OS (setting [8]); 0.77 in the data set on U2OS (setting [3]); 0.81 in the data set with U2OS (setting [4]). Further, the “Growth Rate” value in the data set on U2OS (setting [5]) came out at 0.86; with U2OS (setting [6]) it was 0.86; in the data set on HEK-293T (setting [1]), 0.59; with HEK-293T (setting [8]), 0.64; in the data set on HEK-293T (setting [3]) it was 0.53; in the data set with HEK-293T (setting [4]) it was 0.58. Besides, the entries for the “Growth Rate” value in the data set on HEK-293T (setting [6]) and in the data set on HEK-293T (setting [7]) were 0.67 and 0.73, respectively.

As to `CCc1nc2c(C)cc(C)nc2[nH]1`, the “Growth Rate” value in the data set with Fibroblast (setting [10]) was found to be 0.65; with Fibroblast (setting [2]), 0.58; in the data set on Fibroblast (setting [9]), 0.69; with Fibroblast (setting [5]) it was 0.92; in the data set on U2OS (setting [8]), 0.2; in the data set with U2OS (setting [3]), 0.62. The “Growth Rate” value in the data set with U2OS (setting [4]) amounted to 0.7; with U2OS (setting [5]), 0.93; with U2OS (setting [7]), 0.96; in the data set with HEK-293T (setting [5]) it was 0.89.

With `O=c1nc2[nH]c3ccccc3nc-2c(=O)[nH]1` [ALLOXAZINE], the “Growth Rate” value in the data set with Fibroblast (setting [10]) is on record as -0.4; with Fibroblast (setting [1]), 0.73; in the data set with Fibroblast (setting [8]), 0.04; in the data set on U2OS (setting [10]), 0.16; in the data set on U2OS (setting [1]), -1; in the data set with U2OS (setting [5]), 0.95. In addition, the “Growth Rate” value in the data set on HEK-293T (setting [1]) was found to be 0.68; with HEK-293T (setting [3]) it was 0.97; in the data set on HEK-293T (setting [4]), 0.81; with HEK-293T (setting [6]) it was 0.9.

With `Cl.O=C1CC[C@@]2(O)[C@H]3Cc4ccc(O)c5c4[C@@]2(CCN3CC2CC2)[C@H]1O5` [NALTREXONE HYDROCHLORIDE], the “Growth Rate” value was 0.67 in the data set with Fibroblast (setting [10]); 0.63 in the data set with Fibroblast (setting [1]); 0.38 in the data set on Fibroblast (setting [8]); 0.6 in the data set with Fibroblast (setting [6]); 0.86 with U2OS (setting [10]); -1 in the data set with U2OS (setting [1]). In addition, the “Growth Rate” value in the data set on U2OS (setting [8]) was -0.02; in the data set with U2OS (setting [2]) it was 0.81; with U2OS (setting [3]), 0.39; with U2OS (setting [9]), 0.91; with U2OS (setting [4]), 0.67; with U2OS (setting [6]) it was 0.83. Also, the “Growth Rate” value in the data set on HEK-293T (setting [1]) was 0.83; in the data set with HEK-293T (setting [2]) it was 0.84.
